# Where no end group is shown, it is not given here. [ ]: non-standard residue; d: D form. Dopa = N[C@@H](Cc1ccc(O)c(O)c1)C(=O)O
# B1: Ovalbumin protein: Ovalbumin protein mixed to Dopa at pH 7.4 and incubated with APS (composition melanin/antigen) (protein)
# chain: GSIGAASMEFCFDVFKELKVHHANENIFYCPIAIMSALAMVYLGAKDSTRTQINKVVRFDKLPGFGDSIEAQCGTSVNVHSSLRDILNQITKPNDVYSFSLASRLYAEERYPILPEYLQCVKELYRGGLEPINFQTAADQARELINSWVESQTNGIIRNVLQPSSVDSQTAMVLVNAIVFKGLWEKAFKDEDTQAMPFRVTEQESKPVQMMYQIGLFRVASMASEKMKILELPFASGTMSMLVLLPDEVSGLEQLESIINFEKLTEWTSSNVMEERKIKVYLPRMKMEEKYNLTSVLMAMGITDVFSSSANLSGISSAESLKISQAVHAAHAEINEAGREVVGSAEAGVDAASVSEEFRADHPFLFCIKHIATNAVLFFGRCVSP
# What was measured:
# [1] = test system: total splenocytes restimulated with MHC class-1 epitope KVPRNQDWL (human gp100); format: in vivo, C57-B16 mice; conditions: for CD8 immune response with various melanin precursors: 10 μg hgp100 epitope co-incubated with melanin precursor, pH 8.5 Tris, + 10 μg CpG-28, subcutaneous; for number of IFNy-secreting lymphocytes mean +/− SD: gp100 peptide 10 μg/mouse + L-Dopa 40 μg/mouse incubated 18 hours aerated, mixed with the TLR9 agonist
# Description: (§1) […] After 2 immunizations, the CD8+immune response was evaluated on day 14 using a gamma interferon (IFNg)-secretion Elispot assay, after restimulation of total splenocytes with the relevant MHC class-1 epitope ([…] (SEQ ID NO: 2) for Ovalbumine or […] (SEQ ID NO: 3) for human gp100)
# [2] = Solubility and stability of oxidized Dopa or Dopamine solutions; format: physicochemical; conditions: for precipitation under centrifugation: 2 mg/ml oxidized solution, Dopa: oxygen at pH8.5, 16 000 g for 30 minutes; for aggregates under light microscopy: 2 mg/ml solution oxidized 20 hours, with or without pOVA 0.1 mg/ml
# Description: Dopa (2 mg/ml) or Dopamine (2 mg/ml) solutions were incubated with or without the pOVA (0.1 mg/ml) at pH 7.4 or 8.5, and with different oxidizing agents (O2, ammonium persulfate) for 20 hours. All solutions darkened within a few hours. […] Under centrifugation, the dopamine solutions precipitated, and some dark material remained adherent to the tubes.
# [3] = test system: total splenocytes restimulated with MHC class-1 epitope SIINFEKL (Ovalbumine); experiment: IFNg-secretion Elispot of splenocytes after immunization, restimulation with Ovalbumine epitope; format: in vivo, C57-B16 mice; conditions: for CD8 immune response (IFNg spots): Ovalbumine epitope alone or mixed with 10 μg DOPA, with or without 18 hours oxygen incubation, + CpG-28; for CD8 immune response (IFNg spots) / CD8 / CTL immune response: day 14; for CD8 / CTL immune response: 1 μg peptide + 10 μg CpG-28, day 0 & day 7; for immune response, Dopamine as melanin precursor: peptides with Dopamine; for immune response after 2 immunizations, Dopa as melanin precursor: 3.6 μg peptide co-incubated 18 hours with 100 μg DOPA pH 8.5
# Description: as §1
# [4] = test system: IFNγ-secreting lymphocytes; experiment: Elispot after immunization with formulations oxidized by different agents (Example 2, Table 1); format: in vivo, mice; conditions: H2O2 or ammonium persulfate as oxidant
# Description: (§2) C57-B16, 5-week old, mice were immunized twice (on day 1 and day 7) with the different formulations combined to a Toll-like Receptor 9 (TLR-9) agonist (10 μg of the CpG-28 oligonucleotide, […] (SEQ ID NO: 1)). After 2 immunizations, the CD8+immune response was evaluated on day 14 using a gamma interferon (IFNg)-secretion Elispot assay, after restimulation of total splenocytes with the relevant MHC class-1 epitope ([…] (SEQ ID NO: 2) for Ovalbumine or […] (SEQ ID NO: 3) for human gp100)
# Other oxidizing agents such as hydrogen peroxide (H2O2) or ammonium persulfate (APS) can be used (FIG. 3).
# [5] = 10 kD filtration and SDS-PAGE of melanin-EphA2 complex; format: physicochemical
# Description: FIG. 11: SDS-PAGE (16% polyacrylamide gel) of various preparations: lane MW: molecular weight marker; lane “Ctrl EphA2”: control peptide EphA2 alone (SEQ ID NO: 9); lane “Filtrate”: filtrate of complex melanin-EphA2 after filtration on a 10 kD filter; lane “Retentate”: retentate of complex melanin-EphA2 after filtration on a 10 kD filter, resuspension, dissolution and heating in loading buffer containing SDS. (Melanin-EphA2 was obtained by co-incubating EphA2 peptide with L-Dopa (weight ration 1:10) in arerated conditions)
# A solution of L-Dopa was mixed with an EPHA2 peptide ([…], SEQ ID NO: 9) at a weight ratio L-Dopa:epitope of 1:4. The mixture was then oxidized at pH 8.5 in aerated conditions.
# [6] = Thin-layer chromatography of peptide and oxidized Dopa (complex formation); format: physicochemical; conditions: 72-hour incubation pH 8.5; hgp100 1 mg/ml, Dopa 10 mg/ml
# Description: FIG. 8: Thin-layer chromatography (TLC) after a 72-hour incubation at pH 8.5 (Tris buffer). Left: hgp100 (SEQ ID NO: 3). only; middle: hgp100 (1 mg/ml) and Dopa (10 mg/ml), co-incubated with O2; right: hgp100 (1 mg/ml) added after Dopa (10 mg/ml) had been incubated with O2. […] (TLC was performed on aluminium foils, coated with a thin layer of silica gel as the stationary phase. After the samples have been loaded, a mixture of 1-Butanol/acetic acid/H2O (2/1/1) was used as the mobile phase. The TLC plates were then sprayed with ninhydrin reagent)
# FIG. 9: Thin-layer chromatography (TLC) after a 72-hour incubation at pH 8.5 (Tris buffer). Left: hgp100 (, SEQ ID NO: 3) only; other lanes: hgp100 (1 mg/ml) incubated with various doses of Dopa (Dopa/hgp100 weight ratios: from 1/5 to 10/1). […] (TLC: similar conditions as FIG. 8).
# In vitro experiments with Thin-layer chromatography (TLC) support the hypothesis that the incubation of the peptide while the catechol is being oxidized modifies the characteristic of the final formulation and that a complex is formed between the two entities (FIG. 8).
# [7] = test system: viral epitope gPr73 (SFAVATTAL); experiment: CD8 immune response to viral epitope gPr73 variants co-incubated with L-Dopa; format: in vivo; conditions: Balb/c mice; peptide co-incubated with L-Dopa, mixed to CpG-28
# Description: (§3) Adding arginines (R) or lysines (K) to the NH2-terminal end of the peptides enhanced the immune response when compared to unmodified Trp2 (animals were immunized once with formulations consisting of the peptide (10 μg/mouse) co-incubated with L-Dopa (100 μg/mouse), then mixed to CpG-28 (10 μg/mouse). The CD8 immune responses were assessed on day 8).
# Similar data were obtained with a viral epitope in Balb/c mice (gPr73: SFAVATTAL, SEQ ID NO: 8). […] In both cases, if a glutamate (E) was added next to the lysine, the efficacy was reduced (Table 2).
# [8] = test system: MHC I epitope of Trp2 (VYDFFVWL); experiment: CD8 immune response to Trp2 epitope variants co-incubated with L-Dopa; format: in vivo, mice; conditions: peptide 10 μg/mouse co-incubated with L-Dopa 100 μg/mouse, then mixed to CpG-28 10 μg/mouse; immunized once; day 8
# Description: as §2, §3
# [9] = test system: anti-ovalbumine antibodies; experiment: Humoral response: anti-ovalbumine antibody titers; format: in vivo, C57/Bml6 mice; conditions: day 14
# Description: Ovalbumin protein (1 μg) was mixed to Dopa (1 μg) at pH 7.4, incubated for 4 hours with APS (0.3 μg), and injected subcutaneously with 10 μg in C57/Bml6 mice on day 0 and day 7.
# [10] = 1 μg mixed to Dopa 1 μg pH 7.4, 4 hours APS 0.3 μg, subcutaneous day 0 and day 7
molecule,measurement,setting,value
"NC(Cc1cc(O)c(O)cc1O)C(=O)O (stereo not shown) [6-hydroxydopa, 6-Hydroxy-DOPA]",CD8 immune response with various melanin precursors,[1]; 18 hours oxygen,significant CD8 immune response
"CC(C)(C)OC(=O)N[C@@H](Cc1ccc(O)c(O)c1)C(=O)O [Boc-Dopa, N-(tert-Butyloxycarbonyl)-L-dopa]",CD8 immune response with various melanin precursors,[1]; 18 hours oxygen,reduced magnitude
"N[C@H](Cc1ccc(O)c(O)c1)C(=O)O [D-Dopa, D-3,4-dihydroxyphenylalanine]",CD8 immune response with various melanin precursors,[1]; 18 hours oxygen,significant CD8 immune response
NCCc1ccc(O)c(O)c1 [Dopamine],precipitation under centrifugation,[2],precipitated
same,aggregates under light microscopy,[2],large aggregates were seen under light microscopy
same,CD8 immune response with various melanin precursors,[1]; 18 hours oxygen,reduced magnitude
same,CTL immune response,"[3]; long OVA peptide combined to Dopamine, incubated 4 hours with APS, + 10 μg CpG-28",triggered an immune response
"N[C@@H](Cc1ccc(O)c(O)c1)C(=O)O [L-Dopa, L-3,4-dihydroxyphenylalanine]",precipitation under centrifugation,[2],did not precipitate
same,aggregates under light microscopy,[2],no aggregates can be seen
same,filterability of the oxidized solution,[2]; incubated with oxygen at pH8.5,"can be filtered through a 0.2 μm filter, but not through a 100 kDalton-cut off filter"
same,stability of the oxidized solution,[2]; incubated with oxygen at pH8.5,stable for several weeks
same,optimal molar ratio of oxidant/Dopa for vaccine efficacy,[4],around 1/4
same,CD8 immune response,"[1]; 10 μg hgp100 epitope co-incubated with 100 μg DOPA pH 8.5, 18 hours oxygen, + CpG-28",significant CD8 immune response
same,CD8 immune response with various melanin precursors,[1]; 18 hours oxygen,significant CD8 immune response
same,CD8 immune response (IFNg spots),[3],able to induce IFNg spots
Oc1cccc2cccc(O)c12 [di-hydroxynaphtalene],CD8 immune response with various melanin precursors,[1]; 18 hours oxygen,significant CD8 immune response
D-pOVA: Ovalbumine epitope synthesized with a DOPA at the beginning of the peptide ([Dopa]SIINFEKL),CD8 / CTL immune response,[3],strong CTL immune responses
FSHHNIIRL (also: oxidized with L-Dopa to melanin) [EPHA2 peptide],peptide from retentate heated in loading buffer containing SDS (SDS-page),[5]; 16% polyacrylamide gel,got dissociated from melanin
same,peptide in the filtrate after 10 kD filtration,[5]; peptide oxidized with L-Dopa at pH 8.5 in aerated conditions,no peptide could detected in the filtrate
KVPRNQDWL (human gp100 epitope) [hgp100],"free peptide on TLC, Dopa and peptide co-incubated with oxidizing agent",[6],not seen any more and not
same,"free peptide on TLC, peptide added after Dopa had been oxidized",[6],Free peptide was seen
same,mean number of IFNγ-secreting lymphocytes +/−SD,"[1]; C57BL/6 mice, gp100 10 μg/mouse, with or without L-Dopa 40 μg/mouse (18 hours aerated), combined to poly I:C 10 μg/mouse",1+/−1
same,minimal dose of the epitope required to induce CTLs,[1]; gp100-melanin formulation,0.5 µg
same,IFNγ-secreting lymphocytes when combined with CpG,"[1]; mixed with TLR9 agonist CpG-28, n=8 mice/group",not
same,"CTL response, epitope added after L-Dopa had been oxidized instead of before","[1]; mouse, in vivo",a reduction in the CTL response was observed
SFAVATTAL (Viral epitope of gPr73),number of IFNy-secreting lymphocytes mean +/− SD,[7],5 +/− 4
SIINFEKL [pOVA],CD8 / CTL immune response,[3],did not trigger any significant CD8 immune response
same,CD8 immune response (IFNg spots),[3],did not trigger any significant CD8 immune response
same,amount of epitope sufficient to detect an immune response,"[3]; epitope with DOPA model, data not shown",≤ 10 ng
SMLVLLPDEVSGLEQLESIINFEKLTEWTS (long OVA peptide) [SEQ ID NO:4],"immune response, Dopamine as melanin precursor",[3],highest immune response
"SMLVLLPKKVSGLKQLESIINFEKLTKWTS (positive long OVA peptide) [SEQ ID NO: 6, long OVA peptide modified to be positively charged]","immune response after 2 immunizations, Dopa as melanin precursor",[3]; + 10 μg CpG-28,strong
same,"immune response, Dopamine as melanin precursor",[3],lowest one
"SMLVLLPKSVSGLSQLESIINFEKLTSWTS (neutral long OVA peptide) [SEQ ID NO: 5, long OVA peptide modified to be neutral]","immune response after 2 immunizations, Dopa as melanin precursor",[3]; + 10 μg CpG-28,intermediate
same,"immune response, Dopamine as melanin precursor",[3],intermediate
"TAAACGTTATAACGTTACGACGTCAT (listed as DNA, chemistry not given here) [CpG-28]","immune responses, adjuvant added before versus after oxidation","[1]; L-DOPA 100 μg + hgp100 epitope, 18 hours oxygen",similar
same,number of IFNy-secreting lymphocytes mean +/− SD,[1],211 +/− 83
TCCATGACGTTCCTGACGTT [compound 1826],number of IFNy-secreting lymphocytes mean +/− SD,[1],134 +/− 54
TGACTGTGAACGTTCGAGATGA [ISS],number of IFNy-secreting lymphocytes mean +/− SD,[1],147 +/− 63
VYDFFVWL (MHC I epitope of Trp2),number of IFNy-secreting lymphocytes mean +/− SD,[8],30 +/− 34
pOVA-D: Ovalbumine epitope synthesized with a DOPA at the end of the peptide (SIINFEKL[Dopa]),CD8 / CTL immune response,[3],strong CTL immune responses
B1,titer of anti-ovalbumine antibodies IgG1,[9]; [10],1/8000
same,titer of anti-ovalbumine antibodies IgG2b,[9]; [10],1/5250
same,type of immune response (IgG subtypes),[9],mixed Th1 and Th2 immune response

# Reference: US10857227B2, “Immunostimulatory compositions” (ASSISTANCE PUBLIQUE-HOPITAUX DE PARIS, priority 2015, dated 2020)
